Columns and labels:
[1] = system: male DIO (diet-induced obese) C57BL/6J mice; test: Oral glucose tolerance test (OGTT) in DIO mice; format: in vivo; settings: 30 μmol/kg given orally 60 min before 2 g/kg oral glucose; DIO C57BL/6J mice; ΔAUC 0-120 min
Procedure: In Vivo Studies: Oral Glucose Tolerance Test (OGTT)
Oral glucose tolerance tests were carried out on male DIO (diet-induced obese) C57BL/6J mice fed a high fat diet (60% kcal from fat) for 26 weeks prior to experimentation. Mice were fasted overnight before use for experiments. A test compound or vehicle (either: 1) 40% PEG 400+10% Cremophore+50% water or 2) 10% dimethyl acetamide+10% ethanol+10% Cremophore+70% water) was given orally 60 min before oral administration of a glucose solution at a dose of 2 g/kg body weight (oral glucose tolerance test; OGTT). Blood glucose levels were measured from tail-bled samples taken at different time points before and after administration of glucose (time course of 2 hours). A time curve of the blood glucose was generated and the change from baseline area-under-the curve (ΔAUC) from 0-120 min was calculated (the time glucose administration being time zero).

Human Glucokinase = biological target: T1, Human Glucokinase (Homo sapiens, UniProt P35557); test: Glucokinase tandem enzymatic assay; format: biochemical; settings: 12 mM glucose; for Emax: expressed as a % of basal activation, read-out: Maximal activation (%) Human Glucokinase @ 12 mM Glucose
T1 construct: Full-length human hepatic GK (untagged) was expressed; made in house; host or cells: E. coli BL21 STAR (DE3)pLysS
T1 sequence (P35557 1-466 isoform P35557-2): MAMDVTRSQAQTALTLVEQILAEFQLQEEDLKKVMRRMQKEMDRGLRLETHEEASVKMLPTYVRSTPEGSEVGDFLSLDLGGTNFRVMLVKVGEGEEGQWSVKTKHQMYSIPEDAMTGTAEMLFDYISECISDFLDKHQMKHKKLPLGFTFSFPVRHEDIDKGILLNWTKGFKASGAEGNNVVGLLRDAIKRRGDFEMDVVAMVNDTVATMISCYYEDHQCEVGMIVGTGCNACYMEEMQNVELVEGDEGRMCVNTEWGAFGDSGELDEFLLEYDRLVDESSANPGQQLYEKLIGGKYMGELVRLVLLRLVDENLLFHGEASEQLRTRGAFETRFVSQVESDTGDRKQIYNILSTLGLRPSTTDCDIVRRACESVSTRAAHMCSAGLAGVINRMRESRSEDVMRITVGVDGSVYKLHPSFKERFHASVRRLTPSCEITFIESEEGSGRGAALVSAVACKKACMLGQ
Procedure: Glucokinase Tandem Enzymatic Assay
Enzymatic activity of human glucokinase (GK) was measured by incubating GK, ATP, and glucose for discrete time periods followed by quenching with EDTA (ethylenediamine tetra-acetic acid). Relative amounts of product glucose-6-phosphate (G6P) were measured by then running a detection assay using G6P dehydrogenase and measuring the conversion of ThioNAD (thio-nicotinamide adenine dinucleotide) to ThioNADH (thio-dihydronicotinamide adenine dinucleotide) at a wavelength of 405 nm. This “uncoupled” enzymatic reaction is denoted as the GK “tandem” assay. Activation of GK by compounds can be assessed using this assay. The GK tandem assay protocol described below was followed using a range of activator compound concentrations from 0 to 100 μM at 5 and 12 mM of glucose. Human full-length glucokinase (GK, 15 nM) was incubated with 5 or 12 mM glucose in a 384 well black microtiter plate with a clear bottom. To initiate the GK reaction, magnesium-ATP (3 mM final concentration) was added to GK in buffer (final buffer conditions of 25 mM HEPES buffer, pH 7.1, containing 1 mM dithiothreitol and 5% DMSO). The total reaction volume was 20 μL. The reaction was allowed to proceed for ten minutes and was then quenched with 5 μL EDTA; 45 mM final). The components of the detection reaction, ThioNAD and G6PDH (glucose-6-phosphate dehydrogenase) (final concentrations of 650 μM and 3.33 Units, respectively), were then added together in a volume of 25 μL, (to give a total volume of 50 μL). Absorbance measurements were made at 405 nm on a SPECTRAMAX® Plus 384 absorbance plate reader (Molecular Devices). Absorbance was read, background glucose-6-phosphate levels were subtracted, after which activation was calculated as a percentage of control activity. Control activity was determined using GK in the presence of vehicle (DMSO), with background glucose-6-phosphate subtracted. Background glucose-6-phosphate was determined by pre-quenching GK with EDTA prior to reaction initiation with ATP.
Expression and Purification of Human GK
Full-length human hepatic GK (untagged) was expressed in BL21 STAR (DE3)pLysS cells (Invitrogen) at 25° C. as described by Mookhtiar et al. (1). The protein was purified essentially as described by Lange (2) with a slight modification. Briefly, cell pellets were lysed via three rounds of freezing and thawing, centrifuged at 15000 g for clarification, and precipitated with 40-65% (NH4)2SO4. The resulting pellet was resuspended in buffer, dialyzed, and applied directly to a Q-SEPHAROSE® (Sigma) column followed by elution with a linear 100-600 mM KCl gradient. GK containing fractions were pooled, dialyzed overnight vs. 25 mM Hepes pH 7.2/1 mM MgCl2/1 mM EDTA/0.1 M KCl/1 mM DTT, then dialyzed again with same buffer with 10% glycerol added.

Structure (SMILES)	Reduction in Glucose AUC at 30 μmol/kg dose [1] [%]	EC50 (Human Glucokinase) [nM]	Emax (Human Glucokinase) [%]
CCOP(=O)(Cc1csc(Nc2ncnc3ccc(OC(CF)CF)cc23)n1)OCC [Example 1]	93	91	145
CCOP(C)(=O)Cn1ccc(Nc2ncnc3ccc(OC(C)C)cc23)n1 (racemic) [Example 3]	–	810	134
CCOP(=O)(Cc1csc(Nc2ncnc3ccc(O[C@@H](C)COC)cc23)n1)OCC [Example 4]	–	–	180
CCOP(=O)(Cc1csc(Nc2ncnc3ccc(OC(C)C)cc23)n1)OCC [Example 2]	–	136	–
CCOP(C)(=O)Cc1csc(Nc2ncnc3ccc(OC(CF)CF)cc23)n1 (racemic) [Example 6]	–	390	–

Reference: US8592396B2, “Glucokinase activators and methods of using same” (Bristol-Myers Squibb Company, priority 2010, dated 2013)
